# Measurements from ChEMBL document CHEMBL4130439, “Oral Ingestion and Intraventricular Injection of Curcumin Attenuates the Effort-Related Effects of the VMAT-2 Inhibitor Tetrabenazine: Implications for Motivational Symptoms of Depression” (2017).
# Calls of active or inactive are those of the source. The rule behind the calls is not given here.
# Experiments:
# Rattus norvegicus [1] = test: Inhibition of effort-related effects of TBZ in 90 mins TBZ pretreated Harlan Sprague Dawley rat assessed as increase in TBZ-induced lever presses at 4 to 8 microg, icv administered via chronic indwelling cannulae 20 mins prior to testing measured for 30 mins; assay type: functional, organism-based
# Rattus norvegicus [2] = test: Inhibition of effort-related effects of TBZ in Harlan Sprague Dawley rat assessed as decrease in TBZ-induced chow intake at 80 to 160 mg/kg, po administered 2 hrs prior to testing followed by TBZ addition at 90 mins prior to testing measured for 30 mins; assay type: functional, organism-based
# Rattus norvegicus [3] = test: Inhibition of effort-related effects of TBZ in Harlan Sprague Dawley rat assessed as increase in TBZ-induced lever presses at 80 to 160 mg/kg, po administered 2 hrs prior to testing followed by TBZ addition at 90 mins prior to testing measured for 30 mins; assay type: functional, organism-based
# Rattus norvegicus [4] = test: Inhibition of effort-related effects of TBZ in 90 mins TBZ pretreated Harlan Sprague Dawley rat assessed as decrease in TBZ-induced chow intake at 4 to 8 microg, icv administered via chronic indwelling cannulae 20 mins prior to testing measured for 30 mins; assay type: functional, organism-based
# Rattus norvegicus [5] = test: Ratio of compound effect for TBZ-induced chow intake in icv administered Harlan Sprague Dawley rat to compound effect for TBZ-induced chow intake in orally administered Harlan Sprague Dawley rat; assay type: functional
# Rattus norvegicus [6] = test: Ratio of compound effect for TBZ-induced lever presses in icv administered Harlan Sprague Dawley rat to compound effect for TBZ-induced lever presses in orally administered Harlan Sprague Dawley rat; assay type: functional
# Rattus norvegicus [7] = test: Inhibition of effort-related effects of TBZ in Harlan Sprague Dawley rat assessed as decrease in TBZ-induced chow intake at 160 mg/kg, po administered 3 hrs prior to testing followed by coadministration with TBZ at 90 mins prior to testing measured for 30 mins; assay type: functional, organism-based
# Rattus norvegicus [8] = test: Inhibition of effort-related effects of TBZ in Harlan Sprague Dawley rat assessed as increase in TBZ-induced lever presses at 160 mg/kg, po administered 3 hrs prior to testing followed by coadministration with TBZ at 90 mins prior to testing measured for 30 mins; assay type: functional, organism-based
smiles,measurement,setting,value
COc1cc(/C=C/C(=O)CC(=O)/C=C/c2ccc(O)c(OC)c2)ccc1O [CURCUMIN],inhibition,Rattus norvegicus [1],Active
same,inhibition,Rattus norvegicus [2],inactive
same,inhibition,Rattus norvegicus [3],inactive
same,inhibition,Rattus norvegicus [4],Active
same,Ratio,Rattus norvegicus [5],>1000
same,Ratio,Rattus norvegicus [6],>1000
same,inhibition,Rattus norvegicus [7],Active
same,inhibition,Rattus norvegicus [8],Active
